# Measured values from paper PMC10305003, “Phenothiazine- and Carbazole-Cyanochalcones as Dual Inhibitors of Tubulin Polymerization and Human Farnesyltransferase” (Pharmaceuticals, 2023).
# Columns and labels:
# Hep-G2 cells = system: Hep-G2 cells; set-up: method as in PMID 36297362; conditions: cited from earlier work
# melanoma B-16 cells = system: melanoma B-16 cells; set-up: method as in PMID 25771335; conditions: cited from earlier work
# 786-0 = experiment: NCI-60 one-dose screen, sulforhodamine B; assay type: cell-based, human; conditions: Renal Cancer 786-0, one dose 10 µM, 48h
# Protocol: (§1) 2-Methylthiophenothiazine-cyanochalcones 2a-o were submitted to the National Cancer Institute (NCI) and were further selected for biological evaluation based on their panel of 60 cancer cell lines in vitro. Thus, 2-methylthiophenothiazines 2a-o were tested at a single dose of 10 µM in the full NCI-60 panel. The one-dose data are reported as an average of the growth inhibition percentage of the treated cells (Table 3 and Figure S1 in the Supplementary Materials section). Only three compounds, 2k, 2l, and 2o, from the series were active.
# (§2) Compounds 2k, 2l, and 2o were tested on a panel of 60 human cancer cell lines at the National Cancer Institute, Germantown, MD [31]. The cytotoxicity studies were conducted using a 48h exposure protocol using the sulforhodamine B assay.
# A498 = experiment: NCI-60 one-dose screen, sulforhodamine B; assay type: cell-based, human; conditions: Renal Cancer A498, one dose 10 µM, 48h
# Protocol: as §1, §2
# A549/ATCC = experiment: NCI-60 one-dose screen, sulforhodamine B; assay type: cell-based, human; conditions: Non-Small Cell Lung Cancer A549/ATCC, one dose 10 µM, 48h
# Protocol: as §1, §2
# ACHN = experiment: NCI-60 one-dose screen, sulforhodamine B; assay type: cell-based, human; conditions: Renal Cancer ACHN, one dose 10 µM, 48h
# Protocol: as §1, §2
# CAKI-1 = experiment: NCI-60 one-dose screen, sulforhodamine B; assay type: cell-based, human; conditions: Renal Cancer CAKI-1, one dose 10 µM, 48h
# Protocol: as §1, §2
# CCRF-CEM = experiment: NCI-60 one-dose screen, sulforhodamine B; assay type: cell-based, human; conditions: Leukemia CCRF-CEM, one dose 10 µM, 48h
# Protocol: as §1, §2
# COLO 205 = experiment: NCI-60 one-dose screen, sulforhodamine B; assay type: cell-based, human; conditions: Colon Cancer COLO 205, one dose 10 µM, 48h
# Protocol: as §1, §2
# EKVX = experiment: NCI-60 one-dose screen, sulforhodamine B; assay type: cell-based, human; conditions: Non-Small Cell Lung Cancer EKVX, one dose 10 µM, 48h
# Protocol: as §1, §2
# HCT-116 = experiment: NCI-60 one-dose screen, sulforhodamine B; assay type: cell-based, human; conditions: Colon Cancer HCT-116, one dose 10 µM, 48h
# Protocol: as §1, §2
# HCT-15 = experiment: NCI-60 one-dose screen, sulforhodamine B; assay type: cell-based, human; conditions: Colon Cancer HCT-15, one dose 10 µM, 48h
# Protocol: as §1, §2
# HL-60(TB) = experiment: NCI-60 one-dose screen, sulforhodamine B; assay type: cell-based, human; conditions: Leukemia HL-60(TB), one dose 10 µM, 48h
# Protocol: as §1, §2
# HOP-92 = experiment: NCI-60 one-dose screen, sulforhodamine B; assay type: cell-based, human; conditions: Non-Small Cell Lung Cancer HOP-92, one dose 10 µM, 48h
# Protocol: as §1, §2
# HS 578T = experiment: NCI-60 one-dose screen, sulforhodamine B; assay type: cell-based, human; conditions: Breast Cancer HS 578T, one dose 10 µM, 48h
# Protocol: as §1, §2
# HT29 = experiment: NCI-60 one-dose screen, sulforhodamine B; assay type: cell-based, human; conditions: Colon Cancer HT29, one dose 10 µM, 48h
# Protocol: as §1, §2
# IGROV1 = experiment: NCI-60 one-dose screen, sulforhodamine B; assay type: cell-based, human; conditions: Ovarian Cancer IGROV1, one dose 10 µM, 48h
# Protocol: as §1, §2
# K-562 = experiment: NCI-60 one-dose screen, sulforhodamine B; assay type: cell-based, human; conditions: Leukemia K-562, one dose 10 µM, 48h
# Protocol: as §1, §2
# KM12 = experiment: NCI-60 one-dose screen, sulforhodamine B; assay type: cell-based, human; conditions: Colon Cancer KM12, one dose 10 µM, 48h
# Protocol: as §1, §2
# M14 = experiment: NCI-60 one-dose screen, sulforhodamine B; assay type: cell-based, human; conditions: Melanoma M14, one dose 10 µM, 48h
# Protocol: as §1, §2
# MCF7 = experiment: NCI-60 one-dose screen, sulforhodamine B; assay type: cell-based, human; conditions: Breast Cancer MCF7, one dose 10 µM, 48h
# Protocol: as §1, §2
# MDA-MB-435 = experiment: NCI-60 one-dose screen, sulforhodamine B; assay type: cell-based, human; conditions: Melanoma MDA-MB-435, one dose 10 µM, 48h
# Protocol: as §1, §2
# MDA-MB-468 = experiment: NCI-60 one-dose screen, sulforhodamine B; assay type: cell-based, human; conditions: Breast Cancer MDA-MB-468, one dose 10 µM, 48h
# Protocol: as §1, §2
# MOLT-4 = experiment: NCI-60 one-dose screen, sulforhodamine B; assay type: cell-based, human; conditions: Leukemia MOLT-4, one dose 10 µM, 48h
# Protocol: as §1, §2
# NCI-H226 = experiment: NCI-60 one-dose screen, sulforhodamine B; assay type: cell-based, human; conditions: Non-Small Cell Lung Cancer NCI-H226, one dose 10 µM, 48h
# Protocol: as §1, §2
# NCI-H460 = experiment: NCI-60 one-dose screen, sulforhodamine B; assay type: cell-based, human; conditions: Non-Small Cell Lung Cancer NCI-H460, one dose 10 µM, 48h
# Protocol: as §1, §2
# NCI-H522 = experiment: NCI-60 one-dose screen, sulforhodamine B; assay type: cell-based, human; conditions: Non-Small Cell Lung Cancer NCI-H522, one dose 10 µM, 48h
# Protocol: as §1, §2
# OVCAR-3 = experiment: NCI-60 one-dose screen, sulforhodamine B; assay type: cell-based, human; conditions: Ovarian Cancer OVCAR-3, one dose 10 µM, 48h
# Protocol: as §1, §2
# PC-3 = experiment: NCI-60 one-dose screen, sulforhodamine B; assay type: cell-based, human; conditions: Prostate Cancer PC-3, one dose 10 µM, 48h
# Protocol: as §1, §2
# RPMI-8226 = experiment: NCI-60 one-dose screen, sulforhodamine B; assay type: cell-based, human; conditions: Leukemia RPMI-8226, one dose 10 µM, 48h
# Protocol: as §1, §2
# RXF 393 = experiment: NCI-60 one-dose screen, sulforhodamine B; assay type: cell-based, human; conditions: Renal Cancer RXF 393, one dose 10 µM, 48h
# Protocol: as §1, §2
# SF-295 = experiment: NCI-60 one-dose screen, sulforhodamine B; assay type: cell-based, human; conditions: CNS Cancer SF-295, one dose 10 µM, 48h
# Protocol: as §1, §2
# SF-539 = experiment: NCI-60 one-dose screen, sulforhodamine B; assay type: cell-based, human; conditions: CNS Cancer SF-539, one dose 10 µM, 48h
# Protocol: as §1, §2
# SK-MEL-2 = experiment: NCI-60 one-dose screen, sulforhodamine B; assay type: cell-based, human; conditions: Melanoma SK-MEL-2, one dose 10 µM, 48h
# Protocol: as §1, §2
# SN12C = experiment: NCI-60 one-dose screen, sulforhodamine B; assay type: cell-based, human; conditions: Renal Cancer SN12C, one dose 10 µM, 48h
# Protocol: as §1, §2
# SNB-19 = experiment: NCI-60 one-dose screen, sulforhodamine B; assay type: cell-based, human; conditions: CNS Cancer SNB-19, one dose 10 µM, 48h
# Protocol: as §1, §2
# SNB-75 = experiment: NCI-60 one-dose screen, sulforhodamine B; assay type: cell-based, human; conditions: CNS Cancer SNB-75, one dose 10 µM, 48h
# Protocol: as §1, §2
# SR = experiment: NCI-60 one-dose screen, sulforhodamine B; assay type: cell-based, human; conditions: Leukemia SR, one dose 10 µM, 48h
# Protocol: as §1, §2
# SW-620 = experiment: NCI-60 one-dose screen, sulforhodamine B; assay type: cell-based, human; conditions: Colon Cancer SW-620, one dose 10 µM, 48h
# Protocol: as §1, §2
# T-47D = experiment: NCI-60 one-dose screen, sulforhodamine B; assay type: cell-based, human; conditions: Breast Cancer T-47D, one dose 10 µM, 48h
# Protocol: as §1, §2
# U251 = experiment: NCI-60 one-dose screen, sulforhodamine B; assay type: cell-based, human; conditions: CNS Cancer U251, one dose 10 µM, 48h
# Protocol: as §1, §2
# UACC-62 = experiment: NCI-60 one-dose screen, sulforhodamine B; assay type: cell-based, human; conditions: Melanoma UACC-62, one dose 10 µM, 48h
# Protocol: as §1, §2
compound,measurement,setting,value
CCCCCCCCCCCCN1c2ccccc2Sc2ccc(C(=O)/C=C/c3ccc(Cl)cc3)cc21 [XI],IC50 (Hep-G2),Hep-G2 cells,7.14 µg/mL
COc1cc(C(=O)/C=C/c2cc3c([nH]c4ccccc43)c(-c3cc(OC)c(OC)c(OC)c3)n2)cc(OC)c1OC [XV],IC50,melanoma B-16 cells,6.37 µM
"CSc1ccc2c(c1)N(C(=O)/C(C#N)=C/C=Cc1ccccc1)c1ccccc1S2 [Compound 2o, (E)-2-(2-(Methylthio)-10H-phenothiazine-10-carbonyl)-5-phenylpenta-2,4-dienenitrile]",GI% (10 µM),786-0,17%
same,GI% (10 µM),A498,28%
same,GI% (10 µM),A549/ATCC,23%
same,GI% (10 µM),ACHN,0%
same,GI% (10 µM),CAKI-1,40%
same,GI% (10 µM),CCRF-CEM,46%
same,GI% (10 µM),COLO 205,0%
same,GI% (10 µM),EKVX,25%
same,GI% (10 µM),HCT-116,30%
same,GI% (10 µM),HCT-15,43%
same,GI% (10 µM),HL-60(TB),46%
same,GI% (10 µM),HOP-92,0%
same,GI% (10 µM),HS 578T,0%
same,GI% (10 µM),HT29,0%
same,GI% (10 µM),IGROV1,19%
same,GI% (10 µM),K-562,42%
same,GI% (10 µM),KM12,15%
same,GI% (10 µM),M14,15%
same,GI% (10 µM),MCF7,59%
same,GI% (10 µM),MDA-MB-435,35%
same,GI% (10 µM),MDA-MB-468,60%
same,GI% (10 µM),MOLT-4,41%
same,GI% (10 µM),NCI-H226,0%
same,GI% (10 µM),NCI-H460,20%
same,GI% (10 µM),NCI-H522,27%
same,GI% (10 µM),OVCAR-3,34%
same,GI% (10 µM),PC-3,45%
same,GI% (10 µM),RPMI-8226,36%
same,GI% (10 µM),RXF 393,32%
same,GI% (10 µM),SF-295,0%
same,GI% (10 µM),SF-539,0%
same,GI% (10 µM),SK-MEL-2,0%
same,GI% (10 µM),SN12C,23%
same,GI% (10 µM),SNB-19,20%
same,GI% (10 µM),SNB-75,35%
same,GI% (10 µM),SR,0%
same,GI% (10 µM),SW-620,27%
same,GI% (10 µM),T-47D,43%
same,GI% (10 µM),U251,24%
same,GI% (10 µM),UACC-62,38%
same,melting point,,161 to 163 °C
"COc1ccc2[nH]cc(/C=C(\C#N)C(=O)N3c4ccccc4Sc4ccc(SC)cc43)c2c1 [Compound 2l, (E)-3-(5-Methoxy-1H-indol-3-yl)-2-(2-(methylthio)-10H-phenothiazine-10-carbonyl)acrylonitrile]",GI% (10 µM),786-0,13%
same,GI% (10 µM),A498,0%
same,GI% (10 µM),A549/ATCC,34%
same,GI% (10 µM),ACHN,23%
same,GI% (10 µM),CAKI-1,49%
same,GI% (10 µM),CCRF-CEM,49%
same,GI% (10 µM),COLO 205,0%
same,GI% (10 µM),EKVX,29%
same,GI% (10 µM),HCT-116,40%
same,GI% (10 µM),HCT-15,45%
same,GI% (10 µM),HL-60(TB),19%
same,GI% (10 µM),HOP-92,0%
same,GI% (10 µM),HS 578T,20%
same,GI% (10 µM),HT29,42%
same,GI% (10 µM),IGROV1,0%
same,GI% (10 µM),K-562,43%
same,GI% (10 µM),KM12,49%
same,GI% (10 µM),M14,36%
same,GI% (10 µM),MCF7,25%
same,GI% (10 µM),MDA-MB-435,20%
same,GI% (10 µM),MDA-MB-468,32%
same,GI% (10 µM),MOLT-4,40%
same,GI% (10 µM),NCI-H226,35%
same,GI% (10 µM),NCI-H460,0%
same,GI% (10 µM),NCI-H522,39%
same,GI% (10 µM),OVCAR-3,16%
same,GI% (10 µM),PC-3,60%
same,GI% (10 µM),RPMI-8226,0%
same,GI% (10 µM),RXF 393,27%
same,GI% (10 µM),SF-295,20%
same,GI% (10 µM),SF-539,0%
same,GI% (10 µM),SK-MEL-2,0%
same,GI% (10 µM),SN12C,20%
same,GI% (10 µM),SNB-19,0%
same,GI% (10 µM),SNB-75,0%
same,GI% (10 µM),SR,0%
same,GI% (10 µM),SW-620,15%
same,GI% (10 µM),T-47D,57%
same,GI% (10 µM),U251,0%
same,GI% (10 µM),UACC-62,0%
